We go through 13 compounds from patent publication US5124455A, “Oxime-carbamates and oxime-carbonates as bronchodilators and anti-inflammatory agents” (American Home Products Corporation, priority 1990, dated 1992).

The test system of this experiment is PDE IV. The experiment can be described thus: inhibition of PDE IV isolated from canine trachea (cAMP metabolism). The class given is biochemical. The settings on record: PDE IV from canine tracheal muscle; 1 μM 3H-cAMP; 10 μM CI-930; 30° C., pH 7.8; reduction expressed as percentage of that by 10 μM rolipram. The procedure: The following assay is employed to assess the ability of the compounds of the invention to inhibit PDE IV.
A solution containing PDE IV is prepared from canine tracheal muscle as follows:
The dog is euthanized with an overdose of beuthanasia while under anesthesia induced by a 33 mg/kg IV bolus of Nembutal. The trachealis muscle is removed, cleaned of connective tissue, and minced thoroughly. Three to four grams of tissue is then homogenized in Tris-HCl buffer (pH 7.8) using a Polytron. The homogenate is then centrifuged at 25,000×g (4° C.) for 30 minutes. The supernatant is decanted and filtered through four layers of gauze, and applied to a 40 cm×2 cm DEAE-Sepharose column that is equilibrated with Tris-HCl buffer (pH 7.8). The column is then washed with an additional 240 mL of buffer to remove unbound proteins. PDE is eluted using 450 mL of Tris-HCl buffer containing a linear gradient of 0.0-1.0M Na-acetate (80 mL/hr), and 7.5 mL fractions are collected. Each fraction is assayed for cAMP- and cGMP-metabolizing PDE activity. Fractions eluting at approximately 0.6M Na-acetate, and containing cAMP but not cGMP metabolic activity are pooled and used as a PDE stock solution for assaying PDE IV inhibitory activity.
CI-930 is included as an inhibitor of the cyclic GMP-sensitive, cyclic AMP-selectivePDE (PDE III) that is also present in the PDE IV stock solution when prepared as described above.

The structures appear in SMILES notation.

One may read the IC50 as the concentration at which inhibition is half-maximal. Higher therefore signals weaker potency. Regarding `COc1ccc(/C(C)=N/OC(N)=O)cc1OC1CCCC1` [Example 1, 1-[3-(Cyclopentyloxy)-4-methoxyphenyl]ethanone (E)-O-(aminocarbonyl)oxime], the IC50 worked out at 48 nM.

As to `CCCCOc1cc(/C(C)=N/OC(N)=O)ccc1OC` [Example 2, 1-[3-(Butoxy)-4-methoxyphenyl]ethanone (E)-O-(aminocarbonyl)oxime], the IC50 was determined as 90 nM. On to `COc1ccc(/C(C)=N/OC(N)=O)cc1OCCCOc1ccccc1` [Example 3, 1-[4-Methoxy-3-(3-phenoxypropoxy)phenyl]ethanone (E)-O-(aminocarbonyl)oxime], for which the IC50 stood at 410 nM. `COc1ccc(/C(Cc2ccccc2)=N/OC(N)=O)cc1OC1CCCC1` [Example 4, 1-(3-Cyclopentyloxy-4-methoxyphenyl)-2-phenylethanone (E)-O-(aminocarbonyl)oxime] displayed an IC50 of 47 nM. The compound `COc1ccc(/C(CCc2ccccc2)=N/OC(N)=O)cc1OC1CCCC1` [Example 5, 1-(3-Cyclopentyloxy-4-methoxyphenyl)-3-phenylpropanone (E)-O-(aminocarbonyl)oxime] yielded an IC50 of 25 nM. This IC50 lies about 1.9-fold lower than the previous one. Compound `COc1ccc(/C(CC(C)C)=N/OC(N)=O)cc1OC1CCCC1` [Example 6, 1-[3-(Cyclopentyloxy)-4-methoxyphenyl]-3-methylbutanone (E)-O-(aminocarbonyl)oxime] displayed an IC50 of 130 nM. `CNC(=O)O/N=C(\C)c1ccc(OC)c(OC2CCCC2)c1` [Example 7, 1-[3-(Cyclopentyloxy)-4-methoxyphenyl]ethanone (E)-O-[(methylamino)carbonyl]oxime] had an IC50 of 120 nM.

For the compound `CCCCOc1cc(/C(C)=N/OC(=O)NC)ccc1OC` [Example 8, 1-(3-butoxy-4-methoxyphenyl)ethanone (E)-O-[(methylamino)carbonyl]oxime], the IC50 was 200 nM. This IC50 is about 1.7-fold higher than that of the compound before. The same measure for `CCCCOc1cc(/C(C)=N/OC(=O)Nc2ccccc2)ccc1OC` [Example 9, 1-(3-butoxy-4-methoxyphenyl)ethanone (E)-O-[(phenylamino)carbonyl]oxime]: 1500 nM; for `COC(=O)O/N=C(\C)c1ccc(OC)c(OC2CCCC2)c1` [Example 10, 1-[3-(cyclopentyloxy)-4-methoxyphenyl]ethanone (E)-O-(methoxycarbonyl)oxime]: 180 nM. The same measure for `CCCCOc1cc(/C(C)=N/OC(=O)OC)ccc1OC` [Example 11, 1-(3-butoxy-4-methoxyphenyl)ethanone (E)-O-(methoxycarbonyl)oxime]: 240 nM.

Regarding `CCCCOc1cc(/C(C)=N/OC(=O)Oc2ccccc2)ccc1OC` [Example 12, 1-(3-butoxy-4-methoxyphenyl)ethanone (E)-O-(phenoxycarbonyl)oxime], the IC50 was 380 nM. The same measure for `COc1ccc(/C(C)=N/OC(N)=O)cc1OC1CC2CCC1C2` (stereo not shown) [Example 13, 1-[3-(bicyclo[2.2.1]hept-2-yloxy)-4-methoxyphenyl]ethanone (E)-O-(aminocarbonyl)oxime]: 67 nM.
